From patent US20210330611A1, “THERAPY FOR NEUROLOGICAL DISEASES/DISORDERS” (priority 2020, published 2021)
Counter-ions that a name gives are not always drawn. Like-named read-outs stand apart in the source and are kept apart here.

Tests used:
[1] = system: primary rat microglia; assay: Cell toxicity (dead cells, size <150 μm2) in LPS assay
[2] = system: LPS-induced microglia activation; assay: Image-based assay of LPS-induced microglia activation (HTS and dose response); type: cell-based, rat; conditions: for inhibition at 10 µM: Rattus norvegicus, Microglia, read-out: LPS % inhibition
[3] = system: fibrin- and LPS-induced microglia activation; assay: cells; type: cell-based, rat
[4] = system: primary rat microglia; assay: Cell toxicity (dead cells, size <150 μm2) in coated fibrin (cFib) assay;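 further: share of dead cells sized under 150 µm2 at 10 µM in fibrin-stimulated microglia HTS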
[5] = system: fibrin-induced microglia activation; assay: Image-based assay of fibrin-induced microglia activation (HTS and dose response); type: cell-based, rat; conditions: for inhibition at 10 µM: Rattus norvegicus, Microglia, read-out: Fibrin % inhibition
[6] = primary HTS, 10 μM, LPS assay, dead cells size <150 μm2
[7] = primary HTS, 10 μM, LPS-stimulated primary microglia
[8] = primary HTS, 10 μM, fibrin assay, dead cells size <150 μm2
[9] = primary HTS, 10 μM, fibrin-stimulated primary microglia
[10] = primary microglia HTS, LPS stimulation, toxicity = cell size <150 μm2
[11] = 48 h, primary microglia HTS, LPS stimulation, activation = cell size >800 μm2
[12] = quadrant by fibrin and LPS inhibition in HTS of 1907 compounds
[13] = primary microglia HTS, fibrin stimulation, toxicity = cell size <150 μm2
[14] = primary microglia HTS, fibrin stimulation, activation = cell size >800 μm2
[15] = primary microglia HTS, 10 μM, LPS assay, cell size <150 μm^2 as marker of toxicity
[16] = primary microglia HTS, 10 μM, LPS-stimulated, cell size >800 μm^2 as marker of activation
[17] = HTS of 1907 compounds, quadrant by fibrin and LPS inhibition
[18] = primary microglia HTS, 10 μM, fibrin assay, cell size <150 μm^2 as marker of toxicity
[19] = primary microglia HTS, 10 μM, fibrin-stimulated, cell size >800 μm^2 as marker of activation
[20] = primary microglia HTS, LPS stimulation, decreased size (<150 μm^2) as marker of toxicity
[21] = 48 h, primary microglia HTS, LPS stimulation, increased cell size (>800 μm^2) as marker of activation
[22] = primary microglia HTS, fibrin stimulation, decreased size (<150 μm^2) as marker of toxicity
[23] = primary microglia HTS, fibrin stimulation, increased cell size (>800 μm^2) as marker of activation

Compound: CC(=O)OCC(=O)[C@@]1(O)CC[C@H]2[C@@H]3CCC4=CC(=O)CC[C@]4(C)[C@H]3C(=O)C[C@@]21C [Cortisone Acetate]
- LPS % cell toxicity [1, 6]: 0%
- inhibition at 10 µM [2, 7]: 7%
- Quadrant (FIG. 5b) ([3]; primary HTS, 10 μM): Q4
- Fibrin % cell toxicity [4, 8]: 1%
- inhibition at 10 µM [5, 9]: 0%

Compound: O=C(c1ccc(F)cc1)C1CCN(CCn2c(=O)[nH]c3ccccc3c2=O)CC1 [Ketanserin Tartrate]
- LPS % cell toxicity [1, 10]: 0%
- inhibition at 10 µM [2, 11]: 15%
- Quadrant (FIG. 5b) [3, 12]: Q4
- Fibrin % cell toxicity [4, 13]: 1%
- inhibition at 10 µM [5, 14]: 17%

Compound: CC(=O)O[C@H]1C[C@@H]2CC[C@@H]3[C@H](CC[C@@]4(C)[C@H]3C[C@H]([N+]3(C)CCCCC3)[C@@H]4OC(C)=O)[C@@]2(C)C[C@@H]1N1CCCCC1 [Vecuronium]
- LPS % cell toxicity [1, 15]: 1%
- LPS % inhibition [2, 16]: 0%
- Quadrant (FIG. 5b) [3, 17]: Q4
- Fibrin % cell toxicity [4, 18]: 1%
- Fibrin % inhibition [5, 19]: −24%

Compound: CN1CCc2cc3c(cc2C1O)OCO3 (stereo not drawn) [Hydrastinine Hydrochloride]
- LPS % cell toxicity [1, 10]: 0%
- inhibition at 10 µM [2, 11]: 22%
- Quadrant (FIG. 5b) [3, 12]: Q4
- Fibrin % cell toxicity [4, 13]: 1%
- inhibition at 10 µM [5, 14]: 0%

Compound: CCCCN(CCCC)CCCOC(=O)c1ccc(N)cc1 [Butacaine]
- LPS % cell toxicity [1, 6]: 0%
- inhibition at 10 µM [2, 7]: 3%
- Quadrant (FIG. 5b) ([3]; primary HTS, 10 μM): Q4
- Fibrin % cell toxicity [4, 8]: 0%
- inhibition at 10 µM [5, 9]: -18%

Compound: O=C(O)P(=O)(O)O [Foscarnet]
- LPS % cell toxicity [1, 10]: 0%
- inhibition at 10 µM [2, 11]: 10%
- Quadrant (FIG. 5b) [3, 12]: Q4
- Fibrin % cell toxicity [4, 13]: 1%
- inhibition at 10 µM [5, 14]: 5%

Compound: COc1ccc2[nH]cc(CCNC(C)=O)c2c1 [Melatonin]
- LPS % cell toxicity [1, 20]: 0%
- inhibition at 10 µM [2, 21]: -3%
- Quadrant (FIG. 5b) [3, 12]: Q4
- Fibrin % cell toxicity [4, 22]: 1%
- inhibition at 10 µM [5, 23]: 4%

Compound: CC(c1cc2ccccc2s1)N(O)C(N)=O (stereo not drawn) [Zileuton]
- LPS % cell toxicity [1, 15]: 0%
- inhibition at 10 µM [2, 16]: 21%
- Quadrant (FIG. 5b) [3, 17]: Q4
- Fibrin % cell toxicity [4, 18]: 0%
- inhibition at 10 µM [5, 19]: -12%

Compound: O=C(CCNNC(=O)c1ccncc1)NCc1ccccc1 [Nialamide]
- LPS % cell toxicity [1, 20]: 0%
- inhibition at 10 µM [2, 21]: 11%
- Quadrant (FIG. 5b) [3, 12]: Q4
- Fibrin % cell toxicity [4, 22]: 1%
- inhibition at 10 µM [5, 23]: -6%

Compound: O=C(O)c1cccnc1Nc1cccc(C(F)(F)F)c1 [Niflumic Acid]
- LPS % cell toxicity [1, 20]: 0%
- inhibition at 10 µM [2, 21]: 9%
- Quadrant (FIG. 5b) [3, 12]: Q4
- Fibrin % cell toxicity [4, 22]: 1%
- inhibition at 10 µM [5, 23]: -14%

Compound: OC[C@H]1O[C@@H](O[C@@H]2[C@@H](CO)OC(O)(CO)[C@H]2O)[C@H](O)[C@@H](O)[C@H]1O (mixture of isomers) [Lactulose]
- LPS % cell toxicity [1, 10]: 0%
- inhibition at 10 µM [2, 11]: 4%
- Quadrant (FIG. 5b) [3, 12]: Q4
- Fibrin % cell toxicity [4, 13]: 0%
- inhibition at 10 µM [5, 14]: -14%

Compound: CC(=O)OCC(COC(C)=O)OC(C)=O [Triacetin]
- LPS % cell toxicity [1, 15]: 0%
- inhibition at 10 µM [2, 16]: 15%
- Quadrant (FIG. 5b) [3, 17]: Q4
- Fibrin % cell toxicity [4, 18]: 1%
- inhibition at 10 µM [5, 19]: -32%
